{"source": "paper PMC6515668", "about": "“Liposomes for effective drug delivery to the ocular posterior chamber” (Journal of Nanobiotechnology, 2019)", "key": {"[1]": {"assay": "Microdialysis probe recovery and stability (dialysis and retrodialysis)", "conditions": "retrodialysis, 7 h", "description": "Normal saline containing 30% ethanol was chosen as the perfusate for two drugs with opposing polarity, and the flow rate was 1.5 μL/min according to our previous study. Then, an in vitro RR% evaluation was performed via dialysis and retrodialysis. The in vivo stability study was performed using a retrodialysis method, which provided the evidence for the microdialysis method that was used for the in vivo pharmacokinetics study."}, "[2]": {"system": "ARPE-19", "assay": "In vitro anti-ROS efficacy (H2O2-exposed cells, DCFH-DA)", "type": "cell-based, human", "conditions": "ARPE-19 exposed to 200 μM H2O2 for 24 h, versus model group", "description": "Human retinal pigment epithelial cells (ARPE-19) were maintained in Dulbecco’s modified Eagle’s medium/Ham’s F12 (Gibco) supplemented with 10% fetal bovine serum (Gibco), 100 IU/mL penicillin (Gibco), and 100 μg/mL streptomycin (Gibco) at 37 °C in an atmosphere of 5% CO2. After incubation, cells were exposed to 200 μM H2O2 for 24 h, and fluorescent probes (Beyotime Biotechnology, China) were used to measure intracellular ROS levels (DCFH-DA, 10 mM) according to the manufacturer’s instructions. Before application, CBLs and P-CBLs of a certain volume were diluted with complete culture medium. The final concentration of BBH was 0.0040 μM and 0.0020 μM for CHR in CBLs groups, while 0.0044 μM of BBH, 0.0018 μM for CHR for P-CBLs, respectively. The final drug concentration of CBs was the same as CBLs group. Treated cells were loaded with fluorescent probes in a serum-free medium for 20 min at 37 °C. Then, photographs were taken using a long-term real-time dynamic live cell imaging analyzer."}}, "note": "Where a name gives a salt, the structure may show the parent alone.", "data": [{"smiles": "COc1ccc2cc3[n+](cc2c1OC)CCc1cc2c(cc1-3)OCO2", "note": "[BBH, berberine hydrochloride]", "values": [{"measurement": "stability in in vivo analysis", "setting": "[1]", "result": "good stability for 7 h"}, {"measurement": "intracellular ROS levels (relative fluorescence ratio)", "setting": "[2]", "result": "could reduce intracellular ROS levels effectively"}]}, {"smiles": "Cc1cc(O)c2c(c1)C(=O)c1cccc(O)c1C2=O", "note": "[CHR, chrysophanol]", "values": [{"measurement": "stability in in vivo analysis", "setting": "[1]", "result": "good stability for 7 h"}, {"measurement": "intracellular ROS levels (relative fluorescence ratio)", "setting": "[2]", "result": "could reduce intracellular ROS levels effectively"}]}]}
